Measured values as given in patent US5232933A, “Method for treatment of neurodegenerative diseases” (R. J. Reynolds Tobacco Company, priority 1992, dated 1993).

Biological target: high affinity nicotinic receptors
Assay: Inhibition of L-[3H]nicotine binding to mouse brain membranes
Parameters: species or system Mice (DBA strain)
Conditions: 2 hr incubation at 4° C., Ki calculated from IC50 by method of Cheng
Protocol: Mice (DBA strain) were maintained on a 12 hour light/dark cycle and were allowed free access to water and food supplied by Wayne Lab Blox, Madison, Wis. Animals used in the present studies were 60 to 90 days of age and weighed 20 to 25 g. Brain membrane preparations were obtained from pooled brain tissue of both males and females.
Mice were killed by cervical dislocation. Brains were removed and placed on an ice-cold platform. […] Protein was determined by the method of Lowry, et al., J. Biol. Chem., Vol. 193, pp. 265-275 (1951), using bovine serum albumin as the standard.
The binding of L-[^3 H]nicotine was measured using a modification of the method of Romano, et al., Science, Vol 210 pp. 647-650 (1980) as described previously by Marks, et al., Mol. Pharmacol., Vol. 30, pp. 427-436 (1986). The binding of L-[^3 H]nicotine was measured using a 2 hr. incubation at 4° C. […] Nonspecific binding was determined by inclusion of 10 μM nonradioactive nicotine in the incubations. The inhibition of L-[^3 H]nicotine binding by test compounds was determined by including one of eight different concentrations of the test compound in the incubation. […] Inhibition constant (Ki values) were calculated from the IC50 values using the method of Cheng, et al., Biochem. Pharmacol., Vol. 22, pp. 3099-3108 (1973). […]

c1ccc(C2CCCN2)nc1 (racemic) [alpha-nornicotine]
Ki: 5.7 µM
